According to patent US10722523B2, “Chemoimmunotherapy for epithelial cancer” (THE REGENTS OF THE UNIVERSITY OF CALIFORNIA, priority 2015, dated 2020):

Columns and labels:
Myc-Cap (MC) tumors = experiment: s.c. Myc-Cap (MC) prostate tumor model; assay type: in vivo, mouse; conditions: for regression of MC tumors raised in Jh−/− mice: LD, 3 weekly cycles, tumors 400 mm3
Excerpt: (§1) All TRAMP mice, their derivatives and s.c. Myc-Cap transplantation were in the FVB genetic background and their basic immune parameters are shown in FIG. 15a-m. For s.c. TRAMP-C2 tumors, C57BL/6 mice were used. In both s.c. tumors, 2-3×10^6 cells/mouse were transplanted. More detailed information is as follows.
(§2) Mouse treatment studies were “matched design control trials.” Accordingly, mice were randomly chosen and paired based on sex (male), age (FIG. 6a) and tumor size. For transplanted tumor models, tumor size was defined by the median tumor volume (e.g. 400 mm^3, for late treatments, FIG. 6a,f). For TRAMP transgenic tumor models, treatment decisions were made based on age and mice were randomly chosen including a control littermate. An identification code was assigned to each tumor-bearing mouse both in the transplanted and transgenic models, and the investigators were blinded to treatment allocation at the time of tumor volume measurement, autopsy and analysis.
2×10^6 Myc-Cap^11 or 3×10^6 TRAMP-C2^12 cells (purchased from ATCC) were s.c. injected into the right flank. Tumors were measured every 2-3 days using a caliper. Tumor volumes were calculated as width^2×length/2.
B cells were depleted as previously described^13. Mice were weekly injected (i.p.) with a mixture of monoclonal antibodies, each at 150 μg/mouse: rat anti-mouse CD19 (clone 1D3), rat anti-mouse B220 (clone RA36B2), and mouse anti-mouse CD22 (clone CY34). After 48 hrs, the mice were injected with a secondary antibody (mouse anti-rat kappa chain; GeneTex) at 150 μg/mouse. In addition, mice were injected weekly, but not on the same day, with 250 μg/mouse rat anti-mouse CD20 (Genentech). Rat anti-mouse IgG2a and IgG1 were used as isotype controls. Mice were treated for 3 weeks in total (FIG. 1g; FIG. 7i-p). […]

Myc-Cap (MC) cells = experiment: Cell death and autophagy of Myc-Cap cells in vitro (Annexin V/PI, LC3A flow cytometry); assay type: cell-based, mouse; conditions: for apoptotic cell death of MC cells (Annexin V, propidium iodide): both at 20 µM
Excerpt: (§3) All results are means±s.e.m.
For adoptive T cell transfer (ATCT) CD8^+ T cells were isolated from single cell suspensions, prepared from spleens and lymph nodes as described above, using CD8α-specific microbeads and MACS-columns (both Miltenyi Biotec GmbH, Bergisch Gladbach, Germany), and 5×10^6 CD8^+ T cells were transferred intraperitoneally (i.p.; FIG. 14a-j). For adoptive B cell transfer (ABCT), B cells (B220^+/CD19^+) were isolated from single cell suspensions prepared from spleens using CD19- and B220-specific microbeads and MACS-columns, and 5×10^6 B cells were transferred i.p. (FIG. 4g-h, FIG. 12n,o). For adoptive splenocytes transfer (ACT), single cell suspensions prepared from spleens were transferred i.p., with one total spleen injected per mouse. Labelling with 5-(and 6-) carboxyfluorescein diacetate succinimidyl ester (CFSE; Molecular Probes, Eugene, Oreg.) was done according to manufacturer's protocol. 5×10^6 CD8^+ T cells or 7×10^6 B cells were transferred (equal to one spleen per mouse; FIG. 5a-i and FIG. 14k-q). For combined adoptive B and T cell transfer (FIG. 5j-1, FIG. 14r-t), T cells were isolated from WT-FVB mice immunized with a Myc-Cap cell lysate as previously described^10. […] The extent of cell death was determined by flow cytometry, showing that more than 90% of cells were positive for Annexin V and PI. The dead cells were injected subcutaneously (s.c.) into WT-FVB mice. Seven days later, T cells were isolated from single cell suspensions of spleen and LN using a Pan T cell isolation Kit (Miltenyi Biotec). B cells were isolated from spleens of naïve FVB-WT or FVB-Tgfbr2^ΔB mice using a Pan B cell isolation kit (Miltenyi Biotec). MC-tumor bearing Rag1^−/− mice received 5×10^6 T cells with or without 5×10^6 B cells (98% pure) from WT or Tgfbr2^ΔB mice. Purity was analyzed on a Beckman Coulter Cyan ADP flow cytometer and was always >98%.

[1] = IgA production and immune parameters in tumor-free mice; assay type: in vivo, mouse; conditions: LD, tumor-free WT or Tgfbr2ΔB mice
Protocol: as §3
For lymphocytes isolated from spleen and lymph nodes, standard protocols using filters have been used. Lymphocytes were isolated from human blood using Ficoll-Paque PLUS (GE Healthcare Life Science) according to manufacturer's recommendations. […] Moreover, Il10 and β-actin mRNA expression were analyzed on single cell level by flow cytometry in combination with CD45, IgA and IL-10 protein staining, using FlowRNA II Assay kit (Affymetrix eBioscience) according to manufacturer's protocols^9. Cells were analyzed on a Beckman Coulter Cyan ADP flow cytometer. Data were analyzed using FlowJo software (Treestar). […]
Anti-SV40 Tag immunoglobulin ELISA was performed as previously described^33. […] After 24 hrs, the supernatants were analysed for IgA content. […]

[2] = system: tumor-infiltrating B cells and CD8+ T cells; experiment: Flow cytometry / Q-RT-PCR of tumor-infiltrating lymphocytes in TRAMP and MC tumors; assay type: in vivo, mouse
Protocol: For lymphocytes isolated from spleen and lymph nodes, standard protocols using filters have been used. Lymphocytes were isolated from human blood using Ficoll-Paque PLUS (GE Healthcare Life Science) according to manufacturer's recommendations. For lymphocyte isolation from tumors (mouse and human), tumors were cut into small pieces and incubated in dissociation solution (RPMI medium supplemented with 5% FBS, collagenase type I (200 U/ml), collagenase type IV (200 U/ml), and DNase I (100 μg/ml) for 30 min at 37° C. After incubation, cell suspensions were passed through a 50 μm cell strainer and washed twice. For large tumors (≥0.7 g), hematopoietic cells were pre-enriched using density gradient centrifugation (Percoll or Ficoll), and red blood cells were lysed (RBC Lysis buffer, multi-species; eBioscience). For blocking of Fc-mediated interactions, mouse cells were pre-incubated with 0.5-1 μg of purified anti-mouse CD16/CD32 (93) per 100 μl and human cells were incubated with FcR blocking reagent (Miltenyi Biotec). Isolated cells were stained with labeled antibodies in PBS with 2% FCS and 2 mM EDTA or cell staining buffer (Biolegend). Dead cells were excluded based on staining with Live/Dead fixable dye (eBioscience). For intracellular cytokine staining, cells were restimulated (Myc-Cap cell lysate, PMA/ionomycin or PMA/ionomycin/LPS, as indicated) in the presence of a protein transport inhibitor cocktail containing Brefeldin A and Monensin (eBioscience), as indicated. For CD107, a staining antibody was added to the culture during the stimulation. After 5 hrs, cells were fixed and permeabilized with BD™ Cytofix/Cytoperm reagent for cytokine staining. BD™ transcription factor buffer was used for Foxp3 and T-bet staining and BD™ Phosflow was used for p-SMAD2/3 and p-STAT staining (BD Biosciences) according to manufacturer's recommendations. After fixation/permeabilization, cells were stained with labeled antibodies of interest. Moreover, Il10 and β-actin mRNA expression were analyzed on single cell level by flow cytometry in combination with CD45, IgA and IL-10 protein staining, using FlowRNA II Assay kit (Affymetrix eBioscience) according to manufacturer's protocols^9. Cells were analyzed on a Beckman Coulter Cyan ADP flow cytometer. Data were analyzed using FlowJo software (Treestar). Immune cell analysis of tumor-free mice of different genetic backgrounds (C57BL/6 and FVB) and different genetic ablations are shown in FIG. 15a-m.
Total RNA was extracted using an RNeasy Plus kit (Qiagen). RNA was reverse transcribed using an IScript kit (Biorad). Q-RT-PCR was performed using Ssofast EvaGreen supermix (Biorad) on a Biorad CFX96 machine. Primer sequences are listed below and generally were obtained from the NIH qPrimerDepot (http://mouseprimerdepot.nci.nih.gov). The relative expression levels of target genes were measured in triplicates and normalized against the level of RPL32 expression. Fold-difference (as relative mRNA expression) was calculated by the comparative CT method (2^(Ct(RPI,32-gene or interest))).

TRAMP prostate tumors = experiment: TRAMP spontaneous prostate cancer model, weekly low dose oxaliplatin; assay type: in vivo, mouse; conditions: for prostate tumor regression 30 days after lymphocyte transfer: TRAMP
Excerpt: as §1
C57BL/6 and FVB control mice were purchased from Charles River Laboratories and CD45.1 mice^1 were purchased from Jackson Laboratory, and all were bred at the University of California San Diego (UCSD) animal facility. C57BL/6-Tg(TRAMP)8247Ng/J (TRAMP mice)^2 were backcrossed to the FVB strain for more than 10 generations. The median survival of TRAMP-FVB mice was 23 weeks compared to 52 weeks for TRAMP-C57BL/6 mice. TRAMP mice were crossed with B cell-deficient (Jh^−/−) mice^3, CTL-deficient (Cd8a^−/−) mice^4 or Rag1^−/− mice, which lack both B and T cells^5, all in the FVB-background. OT-I mice were obtained from Taconic^6. Tgfbr2^F/F (FVB-background) mice were obtained from Dr. Hal Moses at Vanderbilt University^7. Tcrb^−/−, Cd19-Cre, Il10^−/− and CD45.1 mice were purchased from the Jackson Laboratory. IgA gene-deficient (Iga^−/−) mice^8 were obtained from Baylor College of Medicine. Pdl1/2^−/− mice were obtained from Genentech (San Francisco, Calif.). Cd19-Cre and Iga^−/− mice were backcrossed to the FVB strain for more than 10 generations. All mice were maintained in filter-topped cages on autoclaved food and water at the UCSD animal facility and all experiments were performed in accordance with UCSD and NIH guidelines and regulations.
as §2
Anti-PD-L1 antibody was i.v. injected at 10 mg/kg once, followed by 5 mg/kg bi-weekly. Mice were treated for three weeks for a total of 7 doses/animal.

serum IgA, IgG = experiment: Serum IgA and IgG ELISA in tumor-bearing mice; assay type: in vivo, mouse; conditions: TRAMP and MC-tumor models, oxaliplatin alone
Protocol: Anti-SV40 Tag immunoglobulin ELISA was performed as previously described^33. IgA and IgG ELISA kits were purchased from eBioscience, and used according to manufacturer's protocols. Tumoral single cell suspension has been prepared as described above in the flow cytometry section, and was washed 2-3 times with 1×PBS/2mMEDTA/2% FCS, to remove soluble IgA. Thereafter, about 3×10^6 cells/24-well were plated in either 10% FCS/DMEM or Hybridoma medium (Life Technology). After 24 hrs, the supernatants were analysed for IgA content. Media without cells were used as controls.

TRAMP-C2 tumors = experiment: s.c. TRAMP-C2 tumor model with adoptive T cell transfer (ATCT); assay type: in vivo, mouse
Excerpt: Immunogenic TRAMP-C2 cells were s.c. inoculated into WT or Tcrβ^−/− mice. […] Immunogenic TRAMP-C2 cells were s.c. inoculated into WT or Rag1^−/− −×OT-1 mice (no B cells), that harbor CD8^+ T cells specific for chicken ovalbumin which is not expressed by TRAMP-C2 cells. […] All results are means±s.e.m. Mann-Whitney and t tests were used to calculate statistical significance.
For adoptive T cell transfer (ATCT) CD8^+ T cells were isolated from single cell suspensions, prepared from spleens and lymph nodes as described above, using CD8α-specific microbeads and MACS-columns (both Miltenyi Biotec GmbH, Bergisch Gladbach, Germany), and 5×10^6 CD8^+ T cells were transferred intraperitoneally (i.p.; FIG. 14a-j). […] For adoptive splenocytes transfer (ACT), single cell suspensions prepared from spleens were transferred i.p., with one total spleen injected per mouse. Labelling with 5-(and 6-) carboxyfluorescein diacetate succinimidyl ester (CFSE; Molecular Probes, Eugene, Oreg.) was done according to manufacturer's protocol. […] Purity was analyzed on a Beckman Coulter Cyan ADP flow cytometer and was always >98%.

## N.N.[Cl][Pt][Cl] [cisplatin]
Myc-Cap (MC) tumors; 6 mg/kg
  regression of MC tumors raised in Jh−/− mice: ineffective
Myc-Cap (MC) tumors; MC tumors, 6 mg/kg
  immunogenic activity of low dose treatment: devoid of immunogenic activity
Myc-Cap (MC) cells; 24 hrs
  apoptotic cell death of MC cells (Annexin V, propidium iodide): induced apoptotic cell death

## O=C1[O][Pt]2([NH][C@@H]3CCCC[C@H]3[NH]2)[O]C1=O [oxaliplatin]
[1]
  IgA production and other immune parameters: no effect
Myc-Cap (MC) tumors; Cd8a−/− mice
  response of MC tumors: No response
Myc-Cap (MC) tumors; Iga−/− mice versus WT
  response of MC tumors to oxaliplatin with IgA ablation: potentiated the response to oxaliplatin
Myc-Cap (MC) tumors; 6 mg/kg
  regression of MC tumors raised in Jh−/− mice: led to regression of MC tumors
Myc-Cap (MC) tumors; MC tumors in Rag1−/− mice
  tumor regression and CTL activation after T cell ± B cell transfer: induced tumor regression and CTL activation only in mice receiving T cells, or T cells+TGFβR2-deficient B cells
Myc-Cap (MC) tumors; WT and Jh−/− mice
  tumor infiltration with CD45+ cells: enhanced tumor infiltration with CD45^+ cells
Myc-Cap (MC) tumors; WT mice, early treatment
  response of small MC tumors (≤100 mm3): chemotherapy responsive
Myc-Cap (MC) tumors; WT versus Jh−/− mice, late treatment
  response of large MC tumors (≥350-400 mm3): shrank upon oxaliplatin treatment only in Jh^−/− mice
Myc-Cap (MC) tumors; associated with oxaliplatin responsiveness
  caspase 3 activation in tumors (apoptosis): enhanced caspase 3 activation
Myc-Cap (MC) tumors; regardless of host genotype
  tumoral DNA damage response (histone H2AX phosphorylation): similarly activated
[2]; MC tumors
  IL-21 expression in tumors: increased IL-21 expression
  Il10 mRNA expression in tumors: increased Il10 mRNA expression
  STAT3 phosphorylation in tumoral B cells: enhanced STAT3 phosphorylation
  proportion of tumoral B cells undergoing TGFβ signaling (p-SMAD2/3, Tgfb1 mRNA): increased the proportion of tumoral B cells undergoing TGFβ signaling
[2]; MC tumors in Jh−/− mice, oxaliplatin versus cisplatin
  abundance of tumor infiltrating CD8+ and CD4+ cells: increased the abundance
[2]; MC tumors, WT and Jh−/− mice, no differences between them
  induction of Nos2, Arg1, IL-12p35 and IL-12p40: induced other immunoregulatory molecules
[2]; TRAMP and MC tumors
  induction of Fas-L and PD-L1 on tumoral B cells: induced Fas ligand (Fas-L) and PD ligand 1 (PD-L1)
[2]; TRAMP and TRAMP, Jh−/− mice
  CD8+ cell recruitment into tumors: stimulated CD8^+ cell recruitment
[2]; TRAMP tumors
  abundance of LTα/β-producing B cells: barely increased
  oxaliplatin-induced IgA+ cells expressing both PD-L1 and IL-10: about 40%
[2]; WT mice bearing MC tumors
  amount of splenic IgA+ cells: modestly increased
[2]; after 3-4 cycles of oxaliplatin treatment
  tumoral B cells that were CD19+B220lowCD138+ plasma cells: at least 40%
[2]; after 3-4 cycles, depending on the tumor model used
  plasma cells that expressed IgA: 40-80%
[2]; after additional cycles
  abundance of IgA+ B cells among B220low cells: ~80%
[2]; after oxaliplatin
  IgA+ B cells expressing both Fas-L and PD-L1: about 50%
[2]; after oxaliplatin cycles
  number of tumoral B220+CD19+ B cells: greatly increased
[2]; after oxaliplatin treatment
  IgA+CD19+ plasmocytes containing both IL-10 mRNA and protein: 50%
[2]; after the first oxaliplatin cycle
  time at which IgA+ B cells became detectable: 48 h
TRAMP prostate tumors; B cell-deficient TRAMP, Jh−/− mice
  PC growth, late treatment: remained oxaliplatin sensitive
TRAMP prostate tumors; LD oxaliplatin weekly, dependent on CTL
  TRAMP mouse survival: enhanced TRAMP mouse survival
TRAMP prostate tumors; Rag1−/− mice receiving T and B cells
  prostate tumor regression 30 days after lymphocyte transfer: led to tumor regression
TRAMP prostate tumors; Rag1−/− mice receiving only T cells
  prostate tumor regression 30 days after lymphocyte transfer: complete tumor regression
TRAMP prostate tumors; WT TRAMP mice, 6 mg/kg weekly, late treatment
  response of ≥0.7 g tumors to late chemotherapy: largely resistant
TRAMP prostate tumors; early treatment, regardless of B cell status
  response of early (≤0.2 g) TRAMP tumors: responded
Serum IgA, IgG
  serum IgA: increased serum IgA
  serum IgG: little effect on serum IgG
Myc-Cap (MC) cells; 24 hrs
  apoptotic cell death of MC cells (Annexin V, propidium iodide): induced apoptotic cell death
Myc-Cap (MC) cells; MC cells, 24 hrs, 20 µM, compared with cisplatin
  stimulation of autophagy (LC3A): more effective in stimulating autophagy
Myc-Cap (MC) cells; Myc-Cap cells, oxaliplatin 40 μM, 48 hrs, flow cytometry
  cells positive for Annexin V and PI (extent of cell death): more than 90%
TRAMP-C2 tumors; B cell-containing Tcrβ−/− mice
  TRAMP-C2 tumor rejection, oxaliplatin combined with ATCT: no tumor rejection took place
TRAMP-C2 tumors; Rag1−/−, OT-1 mice (no B cells)
  TRAMP-C2 tumor growth, ATCT together with oxaliplatin: tumor growth was inhibited
